In US20220235006A1, “PYRIDINE DERIVATIVES AS TMEM16A MODULATORS FOR USE IN THE TREATMENT OF RESPIRATORY CONDITIONS” (TMEM16A LIMITED, priority 2019, published 2022):

Target: T1, human TMEM16A (TMEM16Aabc variant) (Homo sapiens, UniProt Q5XXA6, DEL476-501)
T1 sequence (Q5XXA6 with tags, fused parts or gaps isoform Q5XXA6-5 DEL539-564): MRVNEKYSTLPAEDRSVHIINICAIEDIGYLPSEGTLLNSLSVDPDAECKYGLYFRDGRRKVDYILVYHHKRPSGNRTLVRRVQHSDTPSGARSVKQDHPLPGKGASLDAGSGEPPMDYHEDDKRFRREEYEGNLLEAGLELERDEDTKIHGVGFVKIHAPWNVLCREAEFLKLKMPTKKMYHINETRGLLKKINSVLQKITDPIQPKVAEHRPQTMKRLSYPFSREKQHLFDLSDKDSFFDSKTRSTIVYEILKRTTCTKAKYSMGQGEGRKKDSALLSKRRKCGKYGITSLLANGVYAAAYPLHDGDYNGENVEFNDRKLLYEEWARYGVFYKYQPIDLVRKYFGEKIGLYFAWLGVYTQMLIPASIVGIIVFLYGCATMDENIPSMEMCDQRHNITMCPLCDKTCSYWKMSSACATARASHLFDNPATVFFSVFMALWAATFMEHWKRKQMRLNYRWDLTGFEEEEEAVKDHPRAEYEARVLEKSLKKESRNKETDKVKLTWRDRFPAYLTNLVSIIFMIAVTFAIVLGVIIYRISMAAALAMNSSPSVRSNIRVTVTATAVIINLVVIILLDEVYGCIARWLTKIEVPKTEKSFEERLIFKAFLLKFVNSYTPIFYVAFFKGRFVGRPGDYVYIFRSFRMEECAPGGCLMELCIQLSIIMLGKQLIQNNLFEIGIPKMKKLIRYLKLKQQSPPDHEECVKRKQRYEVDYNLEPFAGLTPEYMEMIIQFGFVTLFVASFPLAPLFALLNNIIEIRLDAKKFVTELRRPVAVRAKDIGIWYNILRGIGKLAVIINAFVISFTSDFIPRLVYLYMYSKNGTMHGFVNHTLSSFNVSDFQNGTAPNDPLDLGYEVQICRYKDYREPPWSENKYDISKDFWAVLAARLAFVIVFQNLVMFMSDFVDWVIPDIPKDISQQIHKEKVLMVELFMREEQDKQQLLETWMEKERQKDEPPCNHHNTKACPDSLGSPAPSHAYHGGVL
Test: Automated whole-cell patch clamp (Qpatch) TMEM16A potentiator assay in recombinant FRT cells
Assay type: cell-based
Conditions: for activation at 3.33 µM: percentage increase of baseline TMEM16A current, minimum n = 2, read-out: % Potentiation @ 3.33 uM Avg; for EC50: minimum n = 2
Procedure: Automated Whole-Cell Patch Clamp Assay to Detect TMEM16A Activity in Recombinant Cells
Fisher rat thyroid (FRT) cells stably expressing human TMEM16A (TMEM16Aabc variant; Dr Luis Galietta, Insituto Giannina, Italy) were cultured in T-75 flasks in Hams F-12 media with Coon's modification (Sigma) supplemented with 10% (v/v) foetal bovine serum, penicillin-streptomycin (10,000 U/mL/10000 μg/mL), G-418 (750 μg/mL), L-glutamine (2 mM) and sodium bicarbonate solution (7.5% v/v). At ˜90% confluence cells were harvested for experiments by detachment with a 2:1 (v/v) mixture of Detachin (BMS Biotechnology) and 0.25% (w/v) trypsin-EDTA.
FRT-TMEM16A cells were whole-cell patch clamped using an automated planar patch clamp system (Qpatch, Sophion). Briefly, once high resistance (GOhm) seals were established between the cells and the planar recording array the patch was ruptured using suction pulses to establish the whole-cell recording configuration of the patch clamp technique. The assay employed the following solutions (all reagents Sigma): Intracellular solution (mM): N-methyl-D-glucamine 130, CaCl2 18.2, MgCl2 1, HEPES 10, EGTA 10, BAPTA 20, Mg-ATP 2, pH 7.25, 325 mOsm with sucrose.
Extracellular solution (mM): N-methyl-D-glucamine 130, CaCl2 2, MgCl2 1, HEPES 10, pH 7.3, 320 mOsm with sucrose.
The intracellular solution buffers intracellular calcium at levels required to give ˜20% activation of the maximal TMEM16A mediated current (E020 for calcium ions). Cells were voltage clamped at a holding potential of −70mV and a combined voltage step (to +70 mV)/ramp (−90 my to +90 mV) was applied at 0.05 Hz. After a period of current stabilisation test compounds, solubilised in 100% (v/v) DMSO and subsequently diluted into extracellular solution, were applied to generate a cumulative concentration response curve. Each concentration of test compound was incubated for 5 minutes before addition of the next concentration. After the final concentration was tested a supramaximal concentration of either a known active positive modulator or the TMEM16A inhibitor, CaCCinhA01 (Del La Fuente et al, 2008) was added to define the upper and lower limits of the assay.
Compound activity was quantified by measuring the increase in current upon compound addition and expressing this as a percentage increase of baseline TMEM16A current level.
Peak TMEM16A current at +70 mV was plotted as a function of time over the assay period. Baseline current (IBL) was measured after a period of stabilisation. The increase in current for each compound addition was determined by taking the peak current during the incubation period and subtracting the current from the previous recording period and then expressing this as a percentage of the baseline current (% potentiation). For test compound concentration 1 in FIG. 1 this is:
For each additional concentration tested the increase in current was determined by subtracting the current from the previous incubation period and normalising the baseline value—for test concentration 2 in FIG. 1 this is:
The values for each test concentration were plotted as a cumulative function of concentration eg. for test concentration two this would be the sum of the peak changes measured during concentration one plus concentration two.

Compound	activation at 3.33 µM [%]	EC50 [nM]
CC(C#N)(CO)NC(=O)c1cc(NC(=O)Cc2cc(O)c(C(C)(C)C)cc2F)ccn1 (stereo not drawn) [Example 1.6]	121	40
CC(C)(C#N)NC(=O)c1cc(NC(=O)Cc2cc(O)c(C(C)(C)O)cc2F)ccn1 [Example 2.1, N-(1-Cyano-1-methyl-ethyl)-4-[[2-[2-fluoro-5-hydroxy-4-(1-hydroxy-1-methyl-ethyl)phenyl]acetyl]amino]pyridine-2-carboxamide]	350	466
CC(O)(c1cc(F)c(CC(=O)Nc2ccnc(C(=O)NC3(C(F)(F)F)CC3)c2)cc1O)C1CC1 (stereo not drawn) [Example 2.8, 4-[[2-[4-(1-Cyclopropyl-1-hydroxy-ethyl)-2-fluoro-5-hydroxy-phenyl]acetyl]amino]-N-[1-(trifluoromethyl)cyclopropyl]pyridine-2-carboxamide]	302	77
N#CC1(c2cc(F)c(CC(=O)Nc3ccnc(C(=O)NC4(C(F)(F)F)CC4)c3)cc2O)CCOCC1 [Example 2.9, 4-[[2-[4-(4-Cyanotetrahydropyran-4-yl)-2-fluoro-5-hydroxy-phenyl]acetyl]amino]-N-[1-(trifluoromethyl)cyclopropyl]pyridine-2-carboxamide]	295	149
Cc1cc(C(C)(C)O)c(O)cc1CC(=O)Nc1ccnc(C(=O)NC2(C(F)(F)F)CC2)c1 [Example 2.12, 4-[[2-[5-Hydroxy-4-(1-hydroxy-1-methyl-ethyl)-2-methyl-phenyl]acetyl]amino]-N-[1-(trifluoromethyl)cyclopropyl]pyridine-2-carboxamide]	209	42
O=C(Cc1cc(O)c(C2(CO)CCOCC2)cc1F)Nc1ccnc(C(=O)NC2(C(F)(F)F)CC2)c1 [Example 2.15, 4-[[2-[2-Fluoro-5-hydroxy-4-[4-(hydroxymethyl)tetrahydropyran-4-yl]phenyl]acetyl]amino]-N-[1-(trifluoromethyl)cyclopropyl]pyridine-2-carboxamide]	413	279
O=C(Cc1cc(O)c(C2(CO)CC2)cc1F)Nc1ccnc(C(=O)NC2(C(F)(F)F)CC2)c1 [Example 2.16, 4-[[2-[2-Fluoro-5-hydroxy-4-[1-(hydroxymethyl)cyclopropyl]phenyl]acetyl]amino]-N-[1-(trifluoromethyl)cyclopropyl]pyridine-2-carboxamide]	227	76
CC(C)(C)NC(=O)c1cc(NC(=O)Cc2cc(O)c(C(C)(C)O)cc2F)ccn1 [Example 7, N-tert-Butyl-4-[[2-[2-fluoro-5-hydroxy-4-(1-hydroxy-1-methyl-ethyl)phenyl]acetyl]amino]pyridine-2-carboxamide]	83.6	68
CC(C)(CO)c1cc(F)c(CC(=O)Nc2ccnc(C(=O)NC3(C#N)CCOCC3)c2)cc1O [Example 12, N-(4-Cyanotetrahydropyran-4-yl)-4-[[2-[2-fluoro-5-hydroxy-4-(2-hydroxy-1,1-dimethyl-ethyl)phenyl]acetyl]amino]pyridine-2-carboxamide]	150	118
CC(C)(CO)c1cc(F)c(CC(=O)Nc2ccnc(C(=O)NC3(C(F)(F)F)COC3)c2)cc1O [Example 12.1, 4-[[2-[2-Fluoro-5-hydroxy-4-(2-hydroxy-1,1-dimethyl-ethyl)phenyl]acetyl]amino]-N-[3-(trifluoromethyl)oxetan-3-yl]pyridine-2-carboxamide]	406	52
CC(C)(CO)NC(=O)c1cc(NC(=O)Cc2cc(O)c(C(C)(C)CO)cc2F)ccn1 [Example 12.3, 4-[[2-[2-Fluoro-5-hydroxy-4-(2-hydroxy-1,1-dimethyl-ethyl)phenyl]acetyl]amino]-N-(2-hydroxy-1,1-dimethyl-ethyl)pyridine-2-carboxamide]	97.2	238
CC(C)(CO)c1cc(F)c(CC(=O)Nc2ccnc(C(=O)NC3(CO)CCC3)c2)cc1O [Example 12.4, 4-[[2-[2-Fluoro-5-hydroxy-4-(2-hydroxy-1,1-dimethyl-ethyl)phenyl]acetyl]amino]-N-[1-(hydroxymethyl)cyclobutyl]pyridine-2-carboxamide]	342	214
O=C(Cc1cc(O)c(C2(O)CCOCC2)cc1F)Nc1ccnc(C(=O)NC2(C(F)(F)F)CC2)c1 [Example 13, 4-[[2-[2-Fluoro-5-hydroxy-4-(4-hydroxytetrahydropyran-4-yl)phenyl]acetyl]amino]-N-[1-(trifluoromethyl)cyclopropyl]pyridine-2-carboxamide]	196	221
CC1(NC(=O)c2cc(NC(=O)Cc3cc(O)c(C(C)(C)CO)cc3F)ccn2)CC(F)(F)C1 [Example 15, N-(3,3-Difluoro-1-methyl-cyclobutyl)-4-[[2-[2-fluoro-5-hydroxy-4-(2-hydroxy-1,1-dimethyl-ethyl)phenyl]acetyl]amino]pyridine-2-carboxamide]	113	14
C#CC(C)(C)NC(=O)c1cc(NC(=O)Cc2cc(O)c(C(C)(C)CO)cc2Cl)ccn1 [Example 15.1, 4-[[2-[2-Chloro-5-hydroxy-4-(2-hydroxy-1,1-dimethyl-ethyl)phenyl]acetyl]amino]-N-(1,1-dimethylprop-2-ynyl)pyridine-2-carboxamide]	190	41
CC(C)(CO)c1cc(F)c(CC(=O)Nc2ccnc(C(=O)NC3(C(F)F)CC3)c2)cc1O [Example 15.4, N-[1-(Difluoromethyl)cyclopropyl]-4-[[2-[2-fluoro-5-hydroxy-4-(2-hydroxy-1,1-dimethyl-ethyl)phenyl]acetyl]amino]pyridine-2-carboxamide]	226	60
C#CC(C)(C)NC(=O)c1cc(NC(=O)Cc2cc(O)c(C(C)(C)CO)cc2F)ccn1 [Example 16, N-(1,1-Dimethylprop-2-ynyl)-4-[[2-[2-fluoro-5-hydroxy-4-(2-hydroxy-1,1-dimethyl-ethyl)phenyl]acetyl]amino]pyridine-2-carboxamide]	74.5	19
CC1(NC(=O)c2cc(NC(=O)Cc3cc(O)c(C(C)(C)CO)cc3F)ccn2)CCOCC1 [Example 16.1, 4-[[2-[2-Fluoro-5-hydroxy-4-(2-hydroxy-1,1-dimethyl-ethyl)phenyl]acetyl]amino]-N-(4-methyltetrahydropyran-4-yl)pyridine-2-carboxamide]	214	181
